Experiments:
Assay type in all cases: in vivo
[1] = test system: common ragweed (Ambrosia artemisiifolia L., AMBEL); assay: Post-emerge greenhouse herbicide test, phytotoxicity rating; details: 14 days after application; for phytotoxicity rating AMBEL: scale 0-100
Outline: (§1)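 Scores use a 0 (no damage) to 100 (complete kill) scale, taken 14 days after a foliar spray. Acetone solutions with 0.25% v/v non-ionic surfactant were applied by track sprayer at 187 l/ha and 63-1000 g ai/ha to bottom-watered 2-3 leaf plants.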

[2] = test system: common ragweed (Ambrosia artemisiifolia L., AMBEL); assay: Pre-emerge greenhouse herbicide test, phytotoxicity rating; details: 14 days after application, rating scale 0-100
Outline: (§2)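 Visual 0–100 injury rating (100 = all plants dead) taken 14 days after treatment. Rates of 125–1000 g ai/ha in acetone, 187 l/ha, were sprayed onto soil one day post-sowing; pots were surface-watered to incorporate, then bottom-watered.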

[3] = test system: velvetleaf (Abutilon theophrasti, ABUTH); assay: as above; details: 14 days after application, rating scale 0-100
Outline: as §2

[4] = test system: ivyleaf morningglory (Ipomoea hederacea, IPOHE); assay: as above; details: 14 days after application, rating scale 0-100
Outline: as §2

[5] = test system: barnyardgrass (Echinochloa crusgalli, ECHCG); assay: as above; details: 14 days after application, rating scale 0-100
Outline: as §2

[6] = test system: green foxtail (Setaria viridis, SETVI); assay: as above; details: 14 days after application, rating scale 0-100
Outline: as §2

[7] = test system: redroot pigweed (Amaranthus retroflexus, AMARE); assay: as above; details: 14 days after application, rating scale 0-100
Outline: as §2

[8] = test system: lambsquarters (Chenopodium album, CHEAL); assay: as above; details: 14 days after application, rating scale 0-100
Outline: as §2

[9] = test system: sicklepod (Cassia obtusifolia, CASOB); assay: as above; details: 14 days after application, rating scale 0-100
Outline: as §2

[10] = test system: Johnsongrass (Sorghum halepense, SORHA); assay: as above; details: 14 days after application, rating scale 0-100
Outline: as §2

[11] = test system: large crabgrass (Digitaria sanguinalis, DIGSA); assay: as above; details: 14 days after application, rating scale 0-100
Outline: as §2

[12] = test system: field corn (Zea mays L., var. Dekalb 535, CORN); assay: Post-emerge greenhouse test, crop damage rating; details: 14 days after application; for crop damage rating CORN: scale 0-100
Outline: as §1

[13] = test system: upland rice (Oryza sp., var.Tebonnet, RICE); assay: Post-emerge greenhouse test, crop damage rating; details: 14 days after application; for crop damage rating RICE: scale 0-100
Outline: as §1

[14] = test system: soybean (Glycine max L., var. Pella 86, SOY); assay: Pre-emerge greenhouse test, crop damage rating; set-up: key to SOY crop damage rating: 0 = no damage, 100 = complete death of all plants; details: 14 days after application, rating scale 0-100
Outline: as §2

[15] = test system: field corn (Zea mays L., var. Dekalb 535, CORN); assay: Pre-emerge greenhouse test, crop damage rating; details: 14 days after application, rating scale 0-100
Outline: as §2

[16] = test system: upland rice (Oryza sp., var.Tebonnet, RICE); assay: Pre-emerge greenhouse test, crop damage rating; details: 14 days after application, rating scale 0-100
Outline: as §2

[17] = test system: soybean (Glycine max L., var. Pella 86, SOY); assay: Post-emerge greenhouse test, crop damage rating; set-up: key to crop damage rating SOY: 0-100 scale: 0 = no damage, 100 = complete death of all plants; details: 14 days after application; for crop damage rating SOY: scale 0-100
Outline: as §1

[18] = test system: velvetleaf (Abutilon theophrasti, ABUTH); assay: Post-emerge greenhouse herbicide test, phytotoxicity rating; details: 14 days after application; for phytotoxicity rating ABUTH: scale 0-100
Outline: as §1

[19] = test system: ivyleaf morningglory (Ipomoea hederacea, IPOHE); assay: as above; details: 14 days after application; for phytotoxicity rating IPOHE: scale 0-100
Outline: as §1

[20] = test system: barnyardgrass (Echinochloa crusgalli, ECHCG); assay: as above; details: 14 days after application; for phytotoxicity rating ECHCG: scale 0-100
Outline: as §1

[21] = test system: green foxtail (Setaria viridis, SETVI); assay: as above; details: 14 days after application; for phytotoxicity rating SETVI: scale 0-100
Outline: as §1

[22] = test system: redroot pigweed (Amaranthus retroflexus, AMARE); assay: as above; details: 14 days after application; for phytotoxicity rating AMARE: scale 0-100
Outline: as §1

[23] = test system: lambsquarters (Chenopodium album, CHEAL); assay: as above; details: 14 days after application; for phytotoxicity rating CHEAL: scale 0-100
Outline: as §1

[24] = test system: Johnsongrass (Sorghum halepense, SORHA); assay: as above; details: 14 days after application; for phytotoxicity rating SORHA: scale 0-100
Outline: as §1

[25] = test system: large crabgrass (Digitaria sanguinalis, DIGSA); assay: as above; details: 14 days after application; for phytotoxicity rating DIGSA: scale 0-100
Outline: as §1

N#Cc1cc([N+](=O)[O-])ccc1Oc1cc(-n2c(=O)n3n(c2=S)CCCC3)c(F)cc1Cl [Compound 8-12]
AMBEL phytotoxicity rating (0-100) ([1]; 63 g al/ha): 50
AMBEL phytotoxicity rating (0-100) ([1]; 500 g al/ha): 70
phytotoxicity rating AMBEL ([2]; 125 g ai/ha): 90
phytotoxicity rating AMBEL ([2]; 500 g ai/ha): 90
phytotoxicity rating ABUTH ([3]; 125 g ai/ha): 95
phytotoxicity rating ABUTH ([3]; 500 g ai/ha): 100
phytotoxicity rating IPOHE ([4]; 125 g ai/ha): 0
phytotoxicity rating IPOHE ([4]; 500 g ai/ha): 70
phytotoxicity rating ECHCG ([5]; 125 g ai/ha): 0
phytotoxicity rating ECHCG ([5]; 500 g ai/ha): 0
phytotoxicity rating SETVI ([6]; 125 g ai/ha): 0
phytotoxicity rating SETVI ([6]; 500 g ai/ha): 70
phytotoxicity rating AMARE ([7]; 125 g ai/ha): 90
phytotoxicity rating AMARE ([7]; 500 g ai/ha): 100
phytotoxicity rating CHEAL ([8]; 125 g ai/ha): 100
phytotoxicity rating CHEAL ([8]; 500 g ai/ha): 100
phytotoxicity rating CASOB ([9]; 125 g ai/ha): 0
phytotoxicity rating CASOB ([9]; 500 g ai/ha): 0
phytotoxicity rating SORHA ([10]; 125 g ai/ha): 0
phytotoxicity rating SORHA ([10]; 500 g ai/ha): 40
phytotoxicity rating DIGSA ([11]; 125 g ai/ha): 0
phytotoxicity rating DIGSA ([11]; 500 g ai/ha): 50
CORN crop damage rating (0-100) ([12]; 63 g al/ha): 0
CORN crop damage rating (0-100) ([12]; 500 g al/ha): 0
RICE crop damage rating (0-100) ([13]; 63 g al/ha): 0
RICE crop damage rating (0-100) ([13]; 500 g al/ha): 30
crop damage rating SOY ([14]; 125 g ai/ha): 0
crop damage rating SOY ([14]; 500 g ai/ha): 0
crop damage rating CORN ([15]; 125 g ai/ha): 0
crop damage rating CORN ([15]; 500 g ai/ha): 0
crop damage rating RICE ([16]; 125 g ai/ha): 20
crop damage rating RICE ([16]; 500 g ai/ha): 50
SOY crop damage rating (0-100) ([17]; 63 g al/ha): 50
SOY crop damage rating (0-100) ([17]; 500 g al/ha): 60
ABUTH phytotoxicity rating (0-100) ([18]; 63 g al/ha): 100
ABUTH phytotoxicity rating (0-100) ([18]; 500 g al/ha): 100
IPOHE phytotoxicity rating (0-100) ([19]; 63 g al/ha): 80
IPOHE phytotoxicity rating (0-100) ([19]; 500 g al/ha): 70
ECHCG phytotoxicity rating (0-100) ([20]; 63 g al/ha): 0
ECHCG phytotoxicity rating (0-100) ([20]; 500 g al/ha): 40
SETVI phytotoxicity rating (0-100) ([21]; 63 g al/ha): 0
SETVI phytotoxicity rating (0-100) ([21]; 500 g al/ha): 30
AMARE phytotoxicity rating (0-100) ([22]; 63 g al/ha): 70
AMARE phytotoxicity rating (0-100) ([22]; 500 g al/ha): 100
CHEAL phytotoxicity rating (0-100) ([23]; 63 g al/ha): 80
CHEAL phytotoxicity rating (0-100) ([23]; 500 g al/ha): 70
SORHA phytotoxicity rating (0-100) ([24]; 63 g al/ha): 0
SORHA phytotoxicity rating (0-100) ([24]; 500 g al/ha): 50
DIGSA phytotoxicity rating (0-100) ([25]; 63 g al/ha): 0
DIGSA phytotoxicity rating (0-100) ([25]; 500 g al/ha): 0

O=c1n(-c2cc(Oc3ccccn3)c(Cl)cc2F)c(=S)n2n1CCCC2 [Compound 8-17]
phytotoxicity rating AMBEL ([1]; rate 63 g ai/ha): 60
phytotoxicity rating AMBEL ([1]; rate 500 g ai/ha): 100
AMBEL phytotoxicity rating ([2]; Rate 125 g al/ha): 100
AMBEL phytotoxicity rating ([2]; Rate 500 g al/ha): 100
ABUTH phytotoxicity rating ([3]; Rate 125 g al/ha): 100
ABUTH phytotoxicity rating ([3]; Rate 500 g al/ha): 100
IPOHE phytotoxicity rating ([4]; Rate 125 g al/ha): 80
IPOHE phytotoxicity rating ([4]; Rate 500 g al/ha): 99
ECHCG phytotoxicity rating ([5]; Rate 125 g al/ha): 85
ECHCG phytotoxicity rating ([5]; Rate 500 g al/ha): 100
SETVI phytotoxicity rating ([6]; Rate 125 g al/ha): 100
SETVI phytotoxicity rating ([6]; Rate 500 g al/ha): 100
AMARE phytotoxicity rating ([7]; Rate 125 g al/ha): 100
AMARE phytotoxicity rating ([7]; Rate 500 g al/ha): 100
CHEAL phytotoxicity rating ([8]; Rate 125 g al/ha): 100
CHEAL phytotoxicity rating ([8]; Rate 500 g al/ha): 100
CASOB phytotoxicity rating ([9]; Rate 125 g al/ha): 100
CASOB phytotoxicity rating ([9]; Rate 500 g al/ha): 80
SORHA phytotoxicity rating ([10]; Rate 125 g al/ha): 50
SORHA phytotoxicity rating ([10]; Rate 500 g al/ha): 100
DIGSA phytotoxicity rating ([11]; Rate 125 g al/ha): 100
DIGSA phytotoxicity rating ([11]; Rate 500 g al/ha): 100
crop damage rating CORN ([12]; rate 63 g ai/ha): 20
crop damage rating CORN ([12]; rate 500 g ai/ha): 10
crop damage rating RICE ([13]; rate 63 g ai/ha): 40
crop damage rating RICE ([13]; rate 500 g ai/ha): 90
SOY crop damage rating ([14]; Rate 125 g al/ha): 0
SOY crop damage rating ([14]; Rate 500 g al/ha): 95
CORN crop damage rating ([15]; Rate 125 g al/ha): 10
CORN crop damage rating ([15]; Rate 500 g al/ha): 30
RICE crop damage rating ([16]; Rate 125 g al/ha): 50
RICE crop damage rating ([16]; Rate 500 g al/ha): 95
crop damage rating SOY ([17]; rate 63 g ai/ha): 90
crop damage rating SOY ([17]; rate 500 g ai/ha): 100
phytotoxicity rating ABUTH ([18]; rate 63 g ai/ha): 100
phytotoxicity rating ABUTH ([18]; rate 500 g ai/ha): 100
phytotoxicity rating IPOHE ([19]; rate 63 g ai/ha): 100
phytotoxicity rating IPOHE ([19]; rate 500 g ai/ha): 100
phytotoxicity rating ECHCG ([20]; rate 63 g ai/ha): 90
phytotoxicity rating ECHCG ([20]; rate 500 g ai/ha): 100
phytotoxicity rating SETVI ([21]; rate 63 g ai/ha): 50
phytotoxicity rating SETVI ([21]; rate 500 g ai/ha): 90
phytotoxicity rating AMARE ([22]; rate 63 g ai/ha): 100
phytotoxicity rating AMARE ([22]; rate 500 g ai/ha): 100
phytotoxicity rating CHEAL ([23]; rate 63 g ai/ha): 99
phytotoxicity rating CHEAL ([23]; rate 500 g ai/ha): 100
phytotoxicity rating SORHA ([24]; rate 63 g ai/ha): 50
phytotoxicity rating SORHA ([24]; rate 500 g ai/ha): 100
phytotoxicity rating DIGSA ([25]; rate 63 g ai/ha): 50
phytotoxicity rating DIGSA ([25]; rate 500 g ai/ha): 90

From US6479435B1, “Diaryl ethers and processes for their preparation and herbicidal and desiccant compositions containing them” (ISK Americas Incorporated, priority 1997, dated 2002)
